The subject of assay [1] is D-aminoacylase. Description: Effects of various metal salts and reagents on residual enzyme activity. The assay is classed as biochemical, Hypomyces mycophilus IFO 6785. The note with it: for Relative activity (%): pH 9.5; for effect on the enzyme (in words): summary of Tables 6 and 7.
For assay [2], the system named is D-aminoacylase (crude enzyme) of Auricularia auriculajudae IFO 5949. Description: Crude enzyme activity for each N-Ac-D-amino acid substrate. The assay is classed as biochemical. The note with it: Auricularia auriculajudae IFO 5949 crude enzyme; 20 mM substrate, 1 mM CoCl2, 50 mM phosphate buffer pH 7.0. The method, then:
(§1) Auricularia auriculajudae IFO 5949, Pythium aphanidermaatum IFO 7030, and Menisporopsis novaezelandiae IFO 9179 were each inoculated into sterilized media (100 ml each) (Czapek Dox Broth for IFO 5949, YM1 medium for IFO 7030, and POTATO DEXTROSE BROTH for IFO 9179) in 500-ml Erlenmeyer flasks. The fungi were cultured on a rotary shaker at 210 rpm at 24° C. for 7 days and collected by centrifugation using a […] centrifuge with a RPR10-2 rotor at 8,000 rpm (12,500×g) for 20 min. […] Disrupted cells thus obtained were centrifuged using a […] centrifuge with a RPR20-2 rotor at 17,500 rpm (38,000×g) for 30 min at 4° C. to obtain the supernatant as the crude enzyme. […] Figures in the table denote the amount (mM) of D-amino acids produced from the corresponding N-acetyl-D-amino acids. The D-aminoacylase activity was detected in all the strains tested, producing D-amino acid from the corresponding N-acetyl-D-amino acid.

Assay [3] has as its system D-aminoacylase (crude enzyme) of Menisporopsis novaezelandiae IFO 9179. The assay is described as above. The note with it: Menisporopsis novaezelandiae IFO 9179 crude enzyme; 20 mM substrate, 1 mM CoCl2, 50 mM phosphate buffer pH 7.0. The assay is classed as biochemical. The method, then: as §1
Assay [4] deals with D-aminoacylase. As to the kind of experiment: Substrate specificity of purified D-aminoacylase (TNBS method). The assay is classed as biochemical, Hypomyces mycophilus IFO 6785. The note with it: for percentage of the specific activity compared with that for N-acetyl-D-methionine taken as 100%, D-enantiomer / percentage of the specific activity compared with that for N-acetyl-D-methionine taken as 100%, L-enantiomer: 20 mM substrate, 50 mM Tris-HCl pH 7.5, 30° C., 20 min; for activity of the enzyme for the substrate (in words): summary of Table 5. The method, then: The enzyme activity was assayed by determining the amount of amino acid produced using the TNBS method and the HPLC method. In the TMBS method, 100 mM Na2B4O7 (0.5 ml) was added to a sample solution containing amino acid (0.5 ml), 20 μl of 110 mM TNBS (trinitrobenzenesulfonic acid) was then added, and the resulting mixture was quickly stirred. After 5 min, 100 mM NaH2PO4 containing 1.5 mM Na2SO3 (2 ml) was added to the reaction mixture to terminate the color reaction, and the absorbance at 420 nm was measured. HPLC was performed by subjecting a sample solution containing amino acid to high-performance liquid chromatography using an ODS column (column, Wakosil II 5C18 (4.6 dia.×250 mm) (Wako Pure Chemical); eluent, CH3CN/50 mM KH2PO4. H3PO4 (pH 2.5)=2:8; detection, A280 nm; and flow rate, 1.0 ml/min). The retention times were 3.5 min for D-tryptophan and 9.8 min for N-acetyl-D-tryptophan. Using D-tryptophan as the assay standard, one unit (or U) of the enzyme was defined as the amount of the enzyme required to produce 1 μmol of D-tryptophan at 30° C. for 1 min.
Substrate specificity of the enzyme was expressed as the percentage of the specific activity compared with that for N-acetyl-D-methionine taken as 100%. N-chloroacetyl-D-phenylalanine, N-acetyl-D-valine, N-acetyl-D-phenylalanine, N-acetyl-D-tryptophan, N-acetyl-D-leucine, N-acetyl-L-valine, N-acetyl-L-phenylalanine, N-acetyl-L-tryptophan, and N-acetyl-L-leucine substrates were used for the comparison. The enzyme reaction was performed in 50 mM Tris-HCl (pH 7.5) containing 1 µl of the enzyme solution and 20 mM of each substrate (total volume 1.0 ml) at 30° C. for 20 min, and terminated by adding 0.5 ml of a TCA reaction terminating solution according to Tsai et al. (consisting of 110 mM trichloroacetic acid, 220 mM sodium acetate, and 330 mM acetic acid). The enzyme activity was assayed by the TNBS method as described in Example 4(2).

Setting [5] is: metal ion 1 mM, kept at 40° C. for 30 min, residual activity, no addition = 100.
The mark [6] stands for this setting: compound 1 mM, kept at 40° C. for 30 min, residual activity, no addition = 100.

Consider `[Ca+2].[Cl-].[Cl-]` [CaCl2], for which the “Relative activity (%)” value in assay [1] (setting [5]) was determined as 104%.

In the case of `[Cl-].[Cl-].[Co+2]` [CoCl2], the “Relative activity (%)” value in assay [1] is reported as 63.1%.

`[Co+2]` [Co^2+]: the “effect on the enzyme (in words)” value in assay [1] was “inhibited”.

Consider `O=S(=O)([O-])[O-].[Cu+2]` [CuSO4], for which the “Relative activity (%)” value in assay [1] (setting [6]) is listed as 20.4%.

As to `[Cu+2]` [Cu^2+], in assay [1], the “effect on the enzyme (in words)” value is “inhibited”.

Turning to `O=C(O)CN(CCN(CC(=O)O)CC(=O)O)CC(=O)O` [EDTA], the “Relative activity (%)” value in assay [1] (setting [6]) came out at 96.0%. For the same compound, in assay [1], the “effect on the enzyme (in words)” value is “not being inhibited”. With `O=C(O)CN(CCOCCOCCN(CC(=O)O)CC(=O)O)CC(=O)O` [EGTA], the “Relative activity (%)” value in assay [1] (setting [6]) was determined as 90.9%. For the compound `[Cl][Hg][Cl]` [HgCl2], the “Relative activity (%)” value in assay [1] was 13.4%. In the case of `[Hg+2]` [Hg^2+], the “effect on the enzyme (in words)” value in assay [1] is reported as “inhibited”. Consider `NO` [Hydroxylamine], for which the “Relative activity (%)” value in assay [1] (setting [6]) is 96.2%. Take `NC(=O)CI` [Iodoacetamide]: in assay [1], the “Relative activity (%)” value was found to be 185% and the “effect on the enzyme (in words)” value is listed as “activated”. Regarding `[Cl-].[K+]` [KCl], the “Relative activity (%)” value in assay [1] (setting [5]) is 102%. Turning to `[Cl-].[Cl-].[Mg+2]` [MgCl2], the “Relative activity (%)” value in assay [1] stood at 98.0%.

On to `[Cl][Mn][Cl]` [MnCl2], for which the “Relative activity (%)” value in assay [1] (setting [5]) is 100%. With `CC(=O)N[C@H](CC(=O)O)C(=O)O` [N-Acetyl-D-aspartic acid], the “amount of D-amino acids produced from the corresponding N-acetyl-D-amino acids” value was determined as 1.10 mM in assay [2] and 0.66 mM in assay [3].

As for `CC(=O)N[C@H](CC(N)=O)C(=O)O` [N-acetyl-D-asparagine], in assay [4], the “percentage of the specific activity compared with that for N-acetyl-D-methionine taken as 100%, D-enantiomer” value (“percentage … as 100%, D-enantiomer” for short) is recorded as 0%. As for `CC[C@@H](C)[C@@H](NC(C)=O)C(=O)O` [N-acetyl-D-isoleucine], the “percentage … as 100%, D-enantiomer” value in assay [4] was determined as 0%. The same measure, in the same setting: with `CC(=O)N1CCC[C@@H]1C(=O)O` [N-acetyl-D-proline] the figure was 0%. On to `CC(=O)N[C@@H](CC(C)C)C(=O)O` [N-acetyl-L-leucine], for which, in assay [4], the “percentage of the specific activity compared with that for N-acetyl-D-methionine taken as 100%, L-enantiomer” value is listed as 0% and the “activity of the enzyme for the substrate (in words)” value (“activity of the enzyme” for short) was “inactive”. The corresponding values for `CSCC[C@H](NC(C)=O)C(=O)O` [N-acetyl-L-methionine] are 0% and “inactive”. For `CC(=O)N[C@@H](Cc1ccccc1)C(=O)O` [N-acetyl-L-phenylalanine], in that order: 0% and “inactive”. For `CC(=O)N[C@@H](Cc1c[nH]c2ccccc12)C(=O)O` [N-acetyl-L-tryptophan], in that order: 0% and “inactive”. Consider `CC(=O)N[C@H](C(=O)O)C(C)C` [N-acetyl-L-valine], for which, in assay [4], the “percentage of the specific activity compared with that for N-acetyl-D-methionine taken as 100%, L-enantiomer” value was 0% and the “activity of the enzyme” value was “inactive”.

Turning to `O=C(N[C@H](Cc1ccccc1)C(=O)O)c1ccccc1` [N-benzoyl-D-phenylalanine], in assay [4], the “percentage … as 100%, D-enantiomer” value is given as 0%. `O=C(CCl)N[C@H](Cc1ccccc1)C(=O)O` [N-chloroacetyl-D-phenylalanine]: in assay [4], the “percentage … as 100%, D-enantiomer” value is 708% and the “activity of the enzyme” value was “especially active”. Regarding `CCN1C(=O)C=CC1=O` [N-ethylmaleimide], the “Relative activity (%)” value in assay [1] (setting [6]) came to 15.2%. Take `[Cl][Ni][Cl]` [NiCl2]: the “Relative activity (%)” value in assay [1] was 57.7%. For the compound `O=C(O)c1cc[c]([Hg][Cl])cc1` [P-Chloromercuribenzoic acid], the “Relative activity (%)” value in assay [1] (compound 0.5 mM, kept at 40° C. for 30 min, residual activity, no addition = 100) came out at 99.6%.

On to `O=S(=O)(F)Cc1ccccc1` [PMSF, phenyl methyl sulfonyl fluoride], for which the “Relative activity (%)” value in assay [1] is listed as 94.2%. `[Cl-].[Cl-].[Zn+2]` [ZnCl2]: the “Relative activity (%)” value in assay [1] amounted to 26.2%.

With `O=S(=O)([O-])[O-].[Zn+2]` [ZnSO4], in assay [1] (setting [6]), the “Relative activity (%)” value is given as 11.6%. With `[Zn+2]` [Zn^2+], the “effect on the enzyme (in words)” value in assay [1] is listed as “inhibited”. Regarding `c1cnc2c(c1)ccc1cccnc12` [o-Phenanthroline], the “Relative activity (%)” value in assay [1] (setting [6]) came to 78.8%. As to Penicillin, the “percentage … as 100%, D-enantiomer” value in assay [4] was determined as 0%.
